Reference: patent US20250002863A1, “METHOD OF GENERATING FUNCTIONAL ISLETS FROM PLURIPOTENT STEM CELLS” (HANGZHOU REPROGENIX BIOSCIENCE, INC., priority 2021, published 2025)

Test system: pancreatic endocrine progenitors
Assay: Addition of small molecules ISX9 and Wnt-C59 at Stage 5, flow cytometry of β cell marker expression in Stage 6 aggregates
Assay type: cell-based, human
Conditions: added at Stage 5 of the hPSC differentiation protocol (10 μM ISX9, 100 nM Wnt-C59)
Text: FIG. 5 illustrates establishment of efficient hPSC-islet generation protocol and characterization of hPSC-islets. a, Flow cytometry analysis comparing differentiation efficiencies between planar culture and suspension culture at various stages of the protocol in terms of pancreatic progenitor markers at the end of Stage 4 and β cell markers at the end of Stage 6 (n=5). b, Flow cytometry of β cell marker expression in Stage 6 aggregates without and with addition of small molecules ISX9 and Wnt-C59, individually or in combination at Stage 5, detected at S6D2 (n=4). c, Continuous stage-wise tracking of pancreatic progenitor, endocrine progenitor, and β cell markers by flow cytometry throughout the differentiation protocol (n=3). (d-h) In vitro characterization of stage 6 islet-like aggregates. d, Representative immunostaining of key β cell transcription factors in sectioned Stage 6 aggregates. Scale bar, 50 μm. e, C-peptide secretion of Stage 6 aggregates (n=3) and primary human islets in static glucose stimulation assay (n=2). Glucose stimulation index as indicated above bars. f, Insulin secretion of hPSC-islets in dynamic perifusion assay. g, Electron microscopy depicting ultrastructure of Stage 6 β cell and insulin granules. Scale bar, 2.5 μm. h, Glucagon secretion by hPSC-islets in static glucose stimulation assay. […]

With `O=C(NC1CC1)c1cc(-c2cccs2)on1` [ISX9, Isoxazole 9] the “differentiation of pancreatic progenitors / terminal differentiation of pancreatic endocrine progenitors” value was “promoted the terminal differentiation of pancreatic endocrine progenitors”.
